Measurements: patent publication US20260130933A1, “PHARMACEUTICAL COMPOSITION FOR PREVENTION OR TREATMENT OF NEPHROPATHY AND/OR DIABETES MELLITUS, COMPRISING ENAVOGLIFLOZIN” (DAEWOONG PHARMACEUTICAL CO., LTD., priority 2022, published 2026)

Test: Example 3: phase 3 trial, enavogliflozin 0.3 mg vs dapagliflozin 10 mg once a day for 24 weeks added to metformin and gemigliptin in patients with type 2 diabetes (same endpoints, rescue drug)
Type: in vivo, human
Protocol: 1) when Metformin (≥1,000 mg/Day) was Administered at a Constant Dose for at Least 8 Weeks Prior to Pre-Visit (Pre-Screening) • Metformin (≥1,000 mg/day) and gemigliptin (50 mg/day) were co-administered during the 8-week stabilization period. […] 4) when Metformin (≥1,000 mg/Day) and Gemigliptin (50 mg/Day) were Co-Administered at Constant Doses for at Least 8 Weeks Prior to Pre-Visit (Prescreening) • Without a separate stabilization period, Pre-visit (pre-screening) was Visit 1 (screening).
Subjects who met the inclusion/exclusion criteria continued to receive metformin and gemigliptin while receiving a placebo of the clinical trial drug in a single-blind (subject-blinded) state for a 2-week run-in period.
Here, the randomized subjects were stratified according to the administration therapy (co-administration with two or less agents (one or two agents) or three or more agents) of a conventional hypoglycemic agent (before washout of another hypoglycemic agent) within 24 weeks prior to obtaining written informed consent and by an HbA1c value (<8% or ≥8%) at Visit 1 (screening) measured in the central laboratory.
The randomized subjects were administered two tablets of the clinical trial drug corresponding to each administration group once a day, and then visited the institution at weeks 6, 12, 18, and 24 during the 24-week administration period to conduct efficacy and safety assessments. In addition, during the clinical trial period, they were instructed to exercise regularly and control their diet without changing their daily life patterns.
• 1) Change in HbA1c at week 24 after administration of clinical trial drug compared to Visit 2 (randomization)
• 1) Change in HbA1c at each time point of weeks 6, 12, and 18 after administration of clinical trial drug compared to Visit 2 (randomization) • 2) Change in FPG at each time point of weeks 6, 12, 18, and 24 after administration of clinical trial drug compared to Visit 2 (randomization) • 3) Proportion of subjects achieving HbA1c<7% at each time point of weeks 6, 12, 18, and 24 after administration of clinical trial drug • 4) Proportion of subjects achieving HbA1c<6.5% at each time point of weeks 6, 12, 18, and 24 after administration of clinical trial drug • 5) Proportion of subjects achieving therapeutic response (HbA1c change (HbA1c at Visit 2—HbA1c at each evaluation time point)>0.5% or HbA1c<7% at each evaluation time point compared to Visit 2 (randomization)) at each time point of weeks 6, 12, 18, and 24 after administration of clinical trial drug • 6) Proportion of subjects achieving therapeutic response (HbA1c change (HbA1c at Visit 2—HbA1c at each evaluation time point)>0.7% or HbA1c<7% at each evaluation time point compared to Visit 2 (randomization)) at each time point of weeks 6, 12, 18, and 24 after administration of clinical trial drug • 7) Proportion of subjects achieving therapeutic response (HbA1c change (HbA1c at Visit 2—HbA1c at each evaluation time point)>1% or HbA1c<7% at each evaluation time point compared to Visit 2 (randomization)) at each time point of weeks 6, 12, 18, and 24 after administration of clinical trial drug

[1] = week 12, per-protocol set, enavogliflozin 0.3 mg, dapagliflozin 10 mg
[2] = week 18, modified per-protocol set 1, enavogliflozin 0.3 mg vs dapagliflozin 10 mg
[3] = week 18, modified per-protocol set 1, enavogliflozin 0.3 mg, dapagliflozin 10 mg
[4] = week 18, modified per-protocol set 2

## OC[C@H]1O[C@@H](c2cc(Cc3ccc(C4CC4)cc3)c(Cl)c3c2CCO3)[C@H](O)[C@@H](O)[C@@H]1O [Enavogliflozin, (2S,3R,4R,5S,6R)-2-(7-chloro-6 (4-cyclopropylbenzyl)-2,3-dihydrobenzofuran-4-yl)-6-(hydroxymethyl)tetrahydro-2H-pyran-3,4,5-triol]
[1]
  HbA1c, Median: 6.83%
  Subjects achieving HbA1c target of <6.5%, (%): 23.08%
  Subjects achieving HbA1c target of <7%, %: 67.52%
  body weight, Median: 65.80 kg
Week 12, per-protocol set, response 1 = HbA1c change >0.5% or HbA1c <7%, enavogliflozin 0.3 mg, dapagliflozin 10 mg
  Subjects achieving therapeutic glycemic response 1, %: 89.74%
Week 12, per-protocol set, response 2 = HbA1c change >0.7% or HbA1c <7%, enavogliflozin 0.3 mg, dapagliflozin 10 mg
  Subjects achieving therapeutic glycemic response 2, %: 85.47%
Week 12, per-protocol set, response 3 = HbA1c change >1% or HbA1c <7%, enavogliflozin 0.3 mg, dapagliflozin 10 mg
  Subjects achieving therapeutic glycemic response 3, %: 78.63%
Week 18
  FPG change from baseline, LS mean (SE): −27.77(1.63) mg/dL
  HDL-C change from baseline, LS mean (SE): 3.82(0.64) mg/dL
  HOMA-IR change from baseline, LS mean (SE): −1.14(0.11)
  HOMA-β change from baseline, LS mean (SE): 5.97(2.27)
  HbA1c change from baseline, LS mean (SE): −0.83(0.05) % p
  LDL-C change from baseline, LS mean (SE): 0.29(1.63) mg/dL
  Subjects achieving therapeutic response (HbA1c change >0.5% or HbA1c<7%): 82.91%
  UACR change from baseline, LS mean (SE): −11.08(3.89) g/kg
  UGCR change from baseline, LS mean (SE): 58.74(2.33) mg/mg
  adiponectin change from baseline, LS mean (SE): 0.78(0.33) μg/mL
  body weight change from baseline, LS mean (SE): −3.16(0.24) kg
  diastolic blood pressure change from baseline, LS mean (SE): −3.41(0.71) mmHg
  fasting C-peptide change from baseline, LS mean (SE): −0.08(0.02) ng/mL
  leptin change from baseline, LS mean (SE): −1.46(0.52) ng/ml
  systolic blood pressure change from baseline, LS mean (SE): −6.82(0.92) mmHg
  total cholesterol change from baseline, LS mean (SE): 4.27(1.94) mg/dL
  triglyceride change from baseline, LS mean (SE): −11.64(4.46) mg/dL
Week 18, vs dapagliflozin
  FPG change from baseline, LS mean difference: -4.22 mg/dL
  HDL-C change from baseline, LS mean difference: 0.40 mg/dL
  HOMA-IR change from baseline, LS mean difference: −0.13
  HOMA-β change from baseline, LS mean difference: 1.48
  HbA1c change from baseline, LS mean difference: −0.07 % p
  LDL-C change from baseline, LS mean difference: -1.10 mg/dL
  Odds ratio for achieving HbA1c<6.5%: 1.20
  Odds ratio for achieving HbA1c<7%: 1.36
  Odds ratio, therapeutic response (HbA1c change >0.5% or HbA1c<7%): 1.02
  Odds ratio, therapeutic response (HbA1c change >0.7% or HbA1c<7%): 1.09
  Odds ratio, therapeutic response (HbA1c change >1% or HbA1c<7%): 1.22
  UACR change from baseline, LS mean difference: -2.18 g/kg
  UGCR change from baseline, LS mean difference: 13.34 mg/mg
  adiponectin change from baseline, LS mean difference: 0.42 µg/mL
  body weight change from baseline, LS mean difference: -0.15 kg
  diastolic blood pressure change from baseline, LS mean difference: −0.99 mmHg
  fasting C-peptide change from baseline, LS mean difference: -0.02 ng/mL
  leptin change from baseline, LS mean difference: -0.40 ng/mL
  systolic blood pressure change from baseline, LS mean difference: −1.66 mmHg
  total cholesterol change from baseline, LS mean difference: 0.61 mg/dL
  triglyceride change from baseline, LS mean difference: 0.75 mg/dL
[2]
  Change from baseline in HDL-C, ANCOVA LS mean difference: 0.40 mg/dL
  Change from baseline in LDL-C, ANCOVA LS mean difference: -1.10 mg/dL
  Change from baseline in total cholesterol, ANCOVA LS mean difference: 0.61 mg/dL
  Change from baseline in triglycerides, ANCOVA LS mean difference: 0.75 mg/dL
[3]
  Change from baseline in HDL-C, ANCOVA LS mean: 3.82 mg/dL
  Change from baseline in HDL-C, Mean: 4.09 mg/dL
  Change from baseline in HDL-C, Median: 3.00 mg/dL
  Change from baseline in LDL-C, ANCOVA LS mean: 0.29 mg/dL
  Change from baseline in LDL-C, Mean: 0.94 mg/dL
  Change from baseline in LDL-C, Median: 0.00 mg/dL
  Change from baseline in total cholesterol, ANCOVA LS mean: 4.27 mg/dL
  Change from baseline in total cholesterol, Mean: 5.06 mg/dL
  Change from baseline in total cholesterol, Median: 3.00 mg/dL
  Change from baseline in triglycerides, ANCOVA LS mean: -11.64 mg/dL
  Change from baseline in triglycerides, Mean: -9.60 mg/dL
  Change from baseline in triglycerides, Median: -2.00 mg/dL
  Fasting HDL-C, Mean: 50.17 mg/dL
  Fasting HDL-C, Median: 49.50 mg/dL
  Fasting LDL-C, Mean: 72.10 mg/dL
  Fasting LDL-C, Median: 68.00 mg/dL
  Fasting total cholesterol, Mean: 139.38 mg/dL
  Fasting triglycerides, Mean: 109.52 mg/dL
  Fasting triglycerides, Median: 95.50 mg/dL
  fasting Total cholesterol, Median: 134.00 mg/dL
[4]
  Change from baseline in diastolic blood pressure, ANCOVA LS mean: −3.41 mmHg
  Change from baseline in diastolic blood pressure, LS mean difference (enavogliflozin − dapagliflozin): −0.99 mmHg
  Change from baseline in diastolic blood pressure, Mean: −4.03 mmHg
